Results from PubChem BioAssay (NCI).
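Growth conditions: 96-well plates. Treatment: test compound, 48 hours, 5 concentrations. Analysis: linear interpolation between bracketing concentrations; unreached endpoints set to highest concentration. At the GI50, growth is halved. Definition used: TGI = concentration required for complete inhibition of growth.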

Key:
Assay in all cases: inhibition of tumour cell growth, NCI panel, 48 h
NCI/ADR-RES ovarian = test system: NCI/ADR-RES ovarian
SF-295 CNS = test system: SF-295 CNS
MDA-MB-231 breast = test system: MDA-MB-231 breast
K-562 leukemia = test system: K-562 leukemia
COLO 205 colon = test system: COLO 205 colon
T-47D breast = test system: T-47D breast
HCT-15 colon = test system: HCT-15 colon
HCC-2998 colon = test system: HCC-2998 colon
SK-OV-3 ovarian = test system: SK-OV-3 ovarian
SN12C renal = test system: SN12C renal

| SMILES | GI50 (NCI/ADR-RES ovarian) [µM] | TGI (NCI/ADR-RES ovarian) [µM] | GI50 (SF-295 CNS) [µM] | TGI (SF-295 CNS) [µM] | GI50 (MDA-MB-231 breast) [µM] | TGI (MDA-MB-231 breast) [µM] | GI50 (K-562 leukemia) [µM] | TGI (K-562 leukemia) [µM] | GI50 (COLO 205 colon) [µM] | TGI (COLO 205 colon) [µM] | GI50 (T-47D breast) [µM] | TGI (T-47D breast) [µM] | GI50 (HCT-15 colon) [µM] | TGI (HCT-15 colon) [µM] | GI50 (HCC-2998 colon) [µM] | TGI (HCC-2998 colon) [µM] | GI50 (SK-OV-3 ovarian) [µM] | TGI (SK-OV-3 ovarian) [µM] | GI50 (SN12C renal) [µM] | TGI (SN12C renal) [µM] |
| --- | --- | --- | --- | --- | --- | --- | --- | --- | --- | --- | --- | --- | --- | --- | --- | --- | --- | --- | --- | --- |
| O=C(/C=C/C=C/c1ccccc1)c1ccc(Nc2nc(Nc3ccccc3)nc(Nc3ccccc3)n2)cc1 | > 100 | > 100 | 32.5 | > 100 | 34.7 | > 100 | 7.73 | 37.2 | 2.16 | > 100 | 4.58 | > 100 | > 100 | > 100 | > 100 | > 100 | > 100 | > 100 | > 100 | > 100 |
| COc1cc(C(=O)NC2CCN(C)CC2)ccc1Nc1ncc2c(n1)N(C1CCCC1)CC(F)(F)C(=O)N2C | 0.964 | 15.7 | 0.0491 | 3.51 | < 0.0186 | 17.3 | < 0.01 | 4.86 | < 0.01 | 0.064 | 0.177 | 12.6 | 0.468 | 13.7 | < 0.0166 | 2.2 | < 0.0133 | 0.761 | 0.124 | 15 |
| CCCCCCCCCCCCOC1C(CNC(=O)C2OC3OC(C)(C)OC3C2NC(=O)CN2CCN(c3ccccn3)CC2)OC2OC(C)(C)OC21 (stereo not given) | 2.64 | 7.39 | 1.77 | 3.48 | 1.67 | 3.14 | 1.67 | 4.56 | 2.33 | 5.01 | 2.81 | 8.61 | 1.76 | 3.31 | 6.18 | 19.7 | 5.18 | 9.86 | 1.75 | 3.24 |
| Nc1ncnc2c1c(-c1cccc(OCc3ccccc3)c1)cn2C1CC(CN2CCCC2)C1 (stereo not given) | 5.01 | 21.5 | 1.9 | 3.87 | 1.88 | 4.54 | 1.86 | 6.54 | 0.331 | 1.47 | 2.04 | 6.59 | 1.47 | 5.94 | 2 | 6.13 | 2.44 | 5.85 | 3.09 | 14.5 |
| CCOC(=O)C1=C(N)Oc2c(sc3c(C)cccc23)C1c1ccc(Cl)cc1 (stereo not given) | 0.952 | 7.18 | 1.89 | 4.26 | 4.29 | 17.4 | 1.32 | > 100 | 3.46 | 14.1 | 2.79 | 18.8 | 2.02 | 10.6 | 2.32 | 6.63 | 7.97 | 30.1 | 3.97 | 16.1 |
| CCCCCCCCCCCC1=NC(C)(C)CN1CCO | 13.9 | 29.5 | 2.98 | 9.85 | 3.78 | 15.2 | 2.44 | 5.57 | 1.85 | 3.45 | 4.04 | 16.9 | 1.98 | 4.42 | 1.87 | 3.63 | 14.8 | 29.2 | 9.95 | 24.8 |
| C=C1C(=O)O[C@H]2[C@H]1CC/C(C=Nc1ccc(C(F)(F)F)cc1N)=C\CC[C@@]1(C)O[C@@H]21 | 8.09 | 45.2 | 13.1 | 26.3 | 7.05 | 24.3 | 4.39 | 16.5 | 4.21 | 16.3 | 3.31 | 22.1 | 3.48 | 13.6 | 16 | 34.9 | 16.3 | 30 | 10.1 | 26.6 |
| CCOC(=O)c1c[nH]c2c(OCc3ccccc3)c3ccccc3c(O)c2c1=O | 10.9 | > 64.7 | 2.09 | 15.5 | 15.2 | 60.8 | 3.15 | > 39.1 | 47 | > 100 | 18.5 | 69.6 | 11.1 | > 100 | 37.4 | > 100 | 26.3 | > 100 | 22.2 | > 100 |
| C(=N/Nc1ncnc2nc[nH]c12)/c1ccccn1 | 0.382 | > 22.3 | 0.774 | 16 | 0.609 | > 100 | 0.803 | > 100 | 1.72 | > 100 | 0.308 | > 100 | 1.11 | > 100 | 0.422 | > 36.8 | 0.456 | 15.6 | 0.84 | > 65.1 |
| CCCN(CCC)c1ccc(C=O)cc1 | 56.3 | > 100 | 34.2 | > 100 | > 100 | > 100 | 25.7 | > 100 | > 77.6 | > 100 | 21.1 | > 100 | > 84.2 | > 100 | > 67.5 | > 100 | > 100 | > 100 | > 96.2 | > 100 |
| COc1c(OC(C)=O)c(OC(C)=O)cc2c1-c1ccc(OC)c(=O)cc1C(NC(C)=O)CC2 (stereo not given) | – | 74.1 | – | 0.564 | – | > 100 | – | > 100 | – | 0.133 | – | > 100 | – | > 70 | – | 24.8 | – | > 48.1 | – | > 100 |
| O=C(O)CN(CC(=O)O)Cc1cc2c(cc1O)Oc1cc(O)c(CN(CC(=O)O)CC(=O)O)cc1C21OC(=O)c2ccccc21 | – | > 100 | – | > 100 | – | > 100 | – | > 100 | – | > 100 | – | > 100 | – | > 100 | – | > 100 | – | > 100 | – | > 100 |
| Cc1ccc(Cl)cc1Nc1nc(C(F)(F)F)ccc1C(=O)N/N=C/c1c(Cl)cccc1Cl | 0.522 | 6.77 | 0.556 | 3.61 | 0.524 | 2.85 | 0.734 | > 32.1 | 0.395 | 1.72 | 0.517 | 5.18 | 0.41 | 12.8 | 1.24 | 31.5 | 0.899 | 4.76 | 1.2 | 12.2 |
| COc1ccc2nc3cccc([N+](=O)[O-])c3c(NCCN(CCO)CCO)c2c1 | 0.689 | 4.6 | 0.0304 | 0.337 | 0.0385 | 0.42 | 0.013 | 0.0487 | 0.0118 | 0.031 | 0.0913 | 1.01 | 0.157 | 60.8 | 0.0137 | 0.0331 | 0.106 | 0.771 | 0.0486 | 0.443 |
